Measurements taken from patent US11377423B2, “Inhibitors of histone deacetylase” (The Broad Institute, Inc., priority 2012, dated 2022).
“And” between values parts separate entries of the source, which are not always exact repeats. Equal entries are not always repeated. “Also recorded” adds a separate entry of the source. Where two headings read alike, the source gives them in different places.

Tests used:
[1] = molecular target: HDAC6 (Homo sapiens (Human), UniProt Q9UBN7); test: Caliper HDAC enzymatic endpoint assay, HDAC6; assay type: biochemical; conditions: Table 2C; read-out: HDAC6 IC50 after 0 hr preincubation
Sequence of HDAC6 (Q9UBN7 whole entry): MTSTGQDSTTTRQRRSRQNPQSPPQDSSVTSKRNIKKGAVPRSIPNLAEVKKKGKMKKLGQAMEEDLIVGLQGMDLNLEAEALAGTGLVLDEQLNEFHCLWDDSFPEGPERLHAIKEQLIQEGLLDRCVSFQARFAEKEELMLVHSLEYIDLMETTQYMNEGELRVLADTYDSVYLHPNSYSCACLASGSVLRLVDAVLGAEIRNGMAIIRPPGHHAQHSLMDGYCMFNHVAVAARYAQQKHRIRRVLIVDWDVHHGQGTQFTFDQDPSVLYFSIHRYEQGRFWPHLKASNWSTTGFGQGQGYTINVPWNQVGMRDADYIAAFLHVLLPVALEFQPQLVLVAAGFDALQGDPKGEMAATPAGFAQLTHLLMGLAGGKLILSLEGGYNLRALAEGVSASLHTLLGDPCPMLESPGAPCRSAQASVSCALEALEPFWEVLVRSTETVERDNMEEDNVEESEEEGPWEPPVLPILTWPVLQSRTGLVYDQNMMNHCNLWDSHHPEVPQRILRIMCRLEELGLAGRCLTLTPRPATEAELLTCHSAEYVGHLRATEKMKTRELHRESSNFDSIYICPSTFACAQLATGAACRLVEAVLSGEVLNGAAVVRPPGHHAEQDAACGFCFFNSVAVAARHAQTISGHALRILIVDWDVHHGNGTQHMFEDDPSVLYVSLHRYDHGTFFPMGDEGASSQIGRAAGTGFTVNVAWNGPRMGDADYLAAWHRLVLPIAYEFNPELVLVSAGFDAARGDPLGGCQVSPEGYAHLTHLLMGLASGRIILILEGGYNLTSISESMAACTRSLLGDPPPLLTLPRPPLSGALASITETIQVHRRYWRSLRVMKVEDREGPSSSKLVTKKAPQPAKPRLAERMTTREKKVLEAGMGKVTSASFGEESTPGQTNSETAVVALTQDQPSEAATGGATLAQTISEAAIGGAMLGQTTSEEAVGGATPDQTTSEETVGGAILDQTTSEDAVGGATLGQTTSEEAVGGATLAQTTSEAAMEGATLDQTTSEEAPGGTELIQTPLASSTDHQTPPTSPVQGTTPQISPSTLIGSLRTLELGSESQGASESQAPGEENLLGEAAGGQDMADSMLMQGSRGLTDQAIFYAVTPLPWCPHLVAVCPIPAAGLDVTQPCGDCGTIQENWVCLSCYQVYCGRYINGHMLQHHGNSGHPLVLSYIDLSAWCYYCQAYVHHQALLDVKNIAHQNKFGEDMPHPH
Description: (§1) Substrate A was prepared as 2 mM in DMSO. Its final concentration in the assay for HDACs 1, 2, 3, 6 is 2 μM.
(§2) Below is the HDAC and Substrate concentration used in this assay.

[2] = Brain and plasma concentration in mice; assay type: in vivo; conditions: for half-life: mouse, other: injected (site of injection not given)
Description: Specifically, mice were injected with a single dose of compound and the concentration of compound was measured in the brain and plasma of mice at 8 time points. The samples were analyzed by LC-MS/MS.

[3] = test system: INS-1E cells; test: Palmitate and/or glucose-induced beta-cell apoptosis, caspase-3/7 activation; assay type: cell-based, rat; conditions: 0.5 mM palmitate and/or 25 mM glucose, 48 hours
Description: Compounds of the invention were evaluated for their ability to suppress cytokine-induced beta-cell apoptosis and palmitate and/or glucose-induced beta-cell apoptosis by inhibition of HDAC3. Assay protocols were as follows: Cell culture and reagents. […] Recombinant IL-1β, IFN-γ, and TNF-α were purchased from R&D Systems. Palmitate, D-glucose and fatty acids-free low endotoxin BSA were purchased from Sigma. Palmitate was solubilized in 90% ethanol, heated to 60° C. and used 1:100 dilution in media. Caspase-Glo 3/7 was from Promega and 3-(4,5-dimethylthiazol-2-yl)-2,5-diphenyltetrazolium bromide (MTT) was from Calbiochem. Antibodies for HDAC1, HDAC2, HDAC3, pJNK, JNK cleaved caspase-9 and secondary horseradish-peroxidase conjugated goat anti-mouse and anti-rabbit antibodies were from Cell Signaling. Antibody for beta-actin was from Sigma and antibody against CHOP (GADD153) from Abcam. HDAC inhibitors were purchased from Selleck Chemicals or synthesized in-house. Primers were from Integrated DNA Technologies, High Capacity cDNA RT kit and SYBR green master mix were purchased from Applied Biosystems. […] Luminescence was measured after a two-hour incubation using an Envision plate reader (PerkinElmer). […] Apoptosis was measured by caspase-3/7 activation using a commercially available kit. […]

[4] = test system: FGF21; test: FGF21 mRNA expression in HepG2 cells; assay type: cell-based, human
Description: Compounds of the invention were evaluated for their ability to upregulate FgF21 mRNA expression in HepG2 cells. FgF21 (Fibroblast growth factor 21) is a potent insulin sensitizer and stimulatory signal for fat oxidation. (Li, H. et al. Diabetes, 61, 797, 2012; […]., The American Journal of Clinical Nutrition, 91, […], 2010). The assay protocol was as follows. HepG2 cells were cultured in DMEM and 10% FBS. […] We treated cells with the indicated compounds for two hours, and lysed and extracted mRNA using the Rneasy kit (Qiagen). […] Quantitative PCR was performed using Taqman probes specific for human FGF21 and human actin.

[5] = molecular target: HDAC4 (Homo sapiens (Human), UniProt P56524); test: Caliper HDAC enzymatic endpoint assay, HDAC4; assay type: biochemical; conditions: Table 2C; read-out: HDAC4 IC50 after 0 hr preincubation
Sequence of HDAC4 (P56524 whole entry): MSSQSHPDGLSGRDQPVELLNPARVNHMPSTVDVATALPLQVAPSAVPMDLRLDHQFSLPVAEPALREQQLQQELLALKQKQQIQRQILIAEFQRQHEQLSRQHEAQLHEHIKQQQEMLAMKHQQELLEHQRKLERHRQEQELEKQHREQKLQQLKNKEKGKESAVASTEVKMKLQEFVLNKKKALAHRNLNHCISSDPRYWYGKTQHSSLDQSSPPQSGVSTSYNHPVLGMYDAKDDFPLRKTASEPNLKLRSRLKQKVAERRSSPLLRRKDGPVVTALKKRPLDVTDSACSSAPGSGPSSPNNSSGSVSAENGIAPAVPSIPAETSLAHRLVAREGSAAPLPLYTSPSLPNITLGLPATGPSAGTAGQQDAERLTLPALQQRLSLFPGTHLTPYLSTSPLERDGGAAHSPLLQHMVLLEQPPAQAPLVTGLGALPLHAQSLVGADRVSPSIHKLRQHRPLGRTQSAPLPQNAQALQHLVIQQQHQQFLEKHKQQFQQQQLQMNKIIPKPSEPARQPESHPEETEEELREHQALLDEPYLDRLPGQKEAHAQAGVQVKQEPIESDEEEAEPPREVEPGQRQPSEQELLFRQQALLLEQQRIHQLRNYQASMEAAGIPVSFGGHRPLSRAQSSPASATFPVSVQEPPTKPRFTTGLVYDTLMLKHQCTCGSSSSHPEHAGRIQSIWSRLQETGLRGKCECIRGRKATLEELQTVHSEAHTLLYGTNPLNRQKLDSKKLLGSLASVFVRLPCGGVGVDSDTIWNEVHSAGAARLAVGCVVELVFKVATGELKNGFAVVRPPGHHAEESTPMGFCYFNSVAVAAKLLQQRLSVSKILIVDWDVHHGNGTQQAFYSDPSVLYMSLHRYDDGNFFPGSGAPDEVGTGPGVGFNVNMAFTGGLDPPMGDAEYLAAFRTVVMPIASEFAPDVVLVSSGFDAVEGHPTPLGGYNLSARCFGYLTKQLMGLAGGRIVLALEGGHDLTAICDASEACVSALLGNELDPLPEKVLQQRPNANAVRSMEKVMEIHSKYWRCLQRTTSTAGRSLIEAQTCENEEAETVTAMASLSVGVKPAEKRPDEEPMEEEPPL
Description: (§3) The Caliper HDAC Assay Buffer (acronym HAB, 1 liter) was prepared as follows:
(§4) Substrate B was prepared as 2 mM in 100% DMSO. Its final concentration in the assay for HDACs 4, 5, 7, 8, 9 is 2 μM.
(§5) LBH was used as quench inhibitor to stop the reaction at the end point.
IC50 values are in micromolar.

[6] = molecular target: HDAC7 (Homo sapiens (Human), UniProt Q8WUI4); test: Caliper HDAC enzymatic endpoint assay, HDAC7; assay type: biochemical; conditions: Table 2C; read-out: HDAC7 IC50 after 0 hr preincubation
Sequence of HDAC7 (Q8WUI4 whole entry): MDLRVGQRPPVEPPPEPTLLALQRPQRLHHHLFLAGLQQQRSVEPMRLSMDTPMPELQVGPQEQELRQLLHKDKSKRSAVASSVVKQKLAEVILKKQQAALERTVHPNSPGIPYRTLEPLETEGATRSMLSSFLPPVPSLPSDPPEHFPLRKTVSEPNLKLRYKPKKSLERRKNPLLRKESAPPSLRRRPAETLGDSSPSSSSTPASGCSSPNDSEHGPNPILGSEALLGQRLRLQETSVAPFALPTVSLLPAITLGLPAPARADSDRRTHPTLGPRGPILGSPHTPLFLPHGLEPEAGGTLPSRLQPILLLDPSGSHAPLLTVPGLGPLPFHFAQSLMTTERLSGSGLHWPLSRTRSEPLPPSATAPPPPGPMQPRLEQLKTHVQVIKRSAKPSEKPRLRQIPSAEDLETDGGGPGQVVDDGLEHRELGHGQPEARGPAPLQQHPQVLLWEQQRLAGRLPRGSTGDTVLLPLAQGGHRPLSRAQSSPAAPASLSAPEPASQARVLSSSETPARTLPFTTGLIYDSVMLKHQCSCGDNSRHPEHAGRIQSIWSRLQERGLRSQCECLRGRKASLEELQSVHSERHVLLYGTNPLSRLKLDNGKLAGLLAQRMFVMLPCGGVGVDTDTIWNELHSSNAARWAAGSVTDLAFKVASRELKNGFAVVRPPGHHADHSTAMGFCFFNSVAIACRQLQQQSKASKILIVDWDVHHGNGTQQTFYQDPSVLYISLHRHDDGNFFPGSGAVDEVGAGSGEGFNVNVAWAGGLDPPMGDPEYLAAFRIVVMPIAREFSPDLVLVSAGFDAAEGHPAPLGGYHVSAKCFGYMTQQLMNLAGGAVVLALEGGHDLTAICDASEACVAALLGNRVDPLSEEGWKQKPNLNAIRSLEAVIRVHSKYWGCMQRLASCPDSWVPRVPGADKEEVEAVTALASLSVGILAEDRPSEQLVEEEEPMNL
Description: as §3, §4, §5
IC50 values are in micromolar.

[7] = test system: human megakaryocyte progenitors; test: Growth of human megakaryocyte progenitors (surrogate assay for platelet depletion); assay type: cell-based; conditions: 0.1, 1, 10 and 20 μM, relative to DMSO treated cells
Description: Compounds of the invention were evaluated for their effect on the growth of human megakaryocyte progenitors (surrogate assay for platelet depletion). Human CD34+ cells were grown in a collagen-based gel (Megacult-C, Stemcell Technologies). […] 100% indicates no difference in cell viability relative to the DMSO treated cells. […] This is the desired effect.

[8] = molecular target: HDAC3 (Homo sapiens (Human), UniProt O15379); test: Kinetics of the inhibition of HDAC3
Sequence of HDAC3 (O15379 whole entry): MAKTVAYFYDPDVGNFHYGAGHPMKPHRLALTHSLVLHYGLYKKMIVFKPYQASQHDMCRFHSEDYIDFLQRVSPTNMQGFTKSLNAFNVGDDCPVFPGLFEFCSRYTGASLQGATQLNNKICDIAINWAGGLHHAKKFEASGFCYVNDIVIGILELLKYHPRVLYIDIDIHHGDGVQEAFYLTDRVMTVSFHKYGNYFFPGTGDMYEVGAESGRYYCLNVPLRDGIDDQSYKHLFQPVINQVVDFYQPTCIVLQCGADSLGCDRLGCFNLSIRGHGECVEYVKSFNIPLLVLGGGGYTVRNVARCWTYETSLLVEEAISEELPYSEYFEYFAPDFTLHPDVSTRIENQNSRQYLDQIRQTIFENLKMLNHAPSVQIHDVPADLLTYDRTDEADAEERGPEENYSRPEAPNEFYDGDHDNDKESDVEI
Sequence of HDAC3 (Q9Y618 395-489 partner): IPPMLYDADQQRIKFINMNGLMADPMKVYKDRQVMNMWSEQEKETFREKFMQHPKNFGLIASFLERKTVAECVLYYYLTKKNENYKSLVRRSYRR

[9] = molecular target: T1, HDAC1 (Homo sapiens (Human), UniProt Q13547); test: Binding constant from HDAC1 inactivation kinetics
T1 sequence (Q13547 whole entry): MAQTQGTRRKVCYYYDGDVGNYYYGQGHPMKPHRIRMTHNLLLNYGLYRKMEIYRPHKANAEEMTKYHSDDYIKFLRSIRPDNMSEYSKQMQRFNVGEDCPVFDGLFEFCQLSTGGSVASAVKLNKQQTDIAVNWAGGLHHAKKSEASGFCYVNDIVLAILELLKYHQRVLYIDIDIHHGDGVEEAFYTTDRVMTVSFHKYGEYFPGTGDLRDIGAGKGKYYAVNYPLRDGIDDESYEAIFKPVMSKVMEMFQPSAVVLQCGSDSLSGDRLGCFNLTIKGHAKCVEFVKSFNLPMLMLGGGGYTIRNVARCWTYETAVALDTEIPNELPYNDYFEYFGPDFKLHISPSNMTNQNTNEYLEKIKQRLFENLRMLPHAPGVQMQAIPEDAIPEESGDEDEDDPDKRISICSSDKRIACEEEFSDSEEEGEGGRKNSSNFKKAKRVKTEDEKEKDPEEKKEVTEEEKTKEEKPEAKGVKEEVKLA
Description: HDAC1 inactivation kinetic constant was determined by curve-fitting of the plot to a first-order rate equation.

[10] = molecular target: T1, HDAC1; test: Caliper HDAC enzymatic endpoint assay, HDAC1; assay type: biochemical
Description: as §1, §2

[11] = test system: Rat islets; test: Glucolipotoxicity-induced apoptosis in rat islets, cell death ELISA; assay type: cell-based; conditions: 10 μM, 0.5 mM palmitate and 25 mM glucose, 60 h
Description: Rat islets (50 islets/well) were cultured in 48-well plates (NUNC) and exposed to palmitate (0.5 mM) and glucose (25 mM) in medium supplemented with 1% FBS and 1% BSA for 60 hours. Cell death was determined in biological duplicates using a cell death ELISA assay (Roche).
Compounds of the invention protect against combined palmitate and high glucose induced apoptosis in INS-1E cells. […] Apoptosis was measured by caspase-3 activity assay.

[12] = mice, single dose, Repligen 136 30 mg/kg, Compound 1 10 mg/kg

Q: For CC(=O)Nc1ccc(C(=O)Nc2ccc(F)cc2N)cc1 [Compound 1, 4-acetamido-N-(2-amino-4-fluorophenyl)benzamide], which IC50 [1] is on record?
A: Its IC50 is > 33000 nM.

Q: What about the “better brain exposure in comparison to Repligen 136 as measured by Cmax” value ([2]; dose normalized) of the same compound?
A: Its value is 30 times.

Q: What about the “better brain exposure in comparison to Repligen 136 measured by AUC” value ([2]; dose normalized) of the same compound?
A: Its value is 120 times.

Q: What about the “AUC Brain” value [2, 12] of the same compound?
A: The value was 12.77 µM·h.

Q: What about the “Cmax Brain” value [2, 12] of the same compound?
A: The value was 3.80 µM.

Q: And the “concentration in the brain over time” value [2, 12]?
A: The value was “still present in the brain after 8 hours”.

Q: What about the half-life ([2]; brain, read-out: T1/2 Brain (converted)) of the same compound?
A: Its half-life is 2.06 h.

Q: And the half-life ([2]; plasma, read-out: T1/2 Plasma (converted))?
A: The half-life was 2.26 h.

Q: And the “better plasma exposure as measured by AUC than Repligen 136” value ([2]; plasma)?
A: Its value is 30 times.

Q: What about the “suppression of palmitate and/or glucose-induced beta-cell apoptosis (caspase activity)” value [3] of the same compound?
A: Its value is “as effective at suppressing palmitate and/or glucose-induced beta-cell apoptosis as CI-994”.

Q: What about the “FGF21 expression (FGF21/actin), dose response” value [4] of the same compound?
A: Its value is “dose response increases in FGF21 expression”.

Q: What about the “FGF21 mRNA expression” value ([4]; 20 μM, two hours) of the same compound?
A: The value was “upregulates FGF21 mRNA expression”.

Q: And the IC50 [5]?
A: The IC50 was > 33000 nM.

Q: What about the IC50 [6] of the same compound?
A: The IC50 was > 33000 nM.

Q: And the “effect on growth and viability of human megakaryocyte progenitor cells” value [7]?
A: Its value is “does not significantly inhibit cell growth; also recorded: no significant effect on growth and viability”.

Q: And the koff [8]?
A: The koff was 0.000147 s⁻¹.

Q: And the Ki ([8]; HDAC3)?
A: Its Ki is 29 nM.

Q: What about the Kon ([8]; HDAC3) of the same compound?
A: The Kon was 0.30 min^−1, uM^−1 and 0.3 min^−1, uM^−1.

Q: And the koff ([8]; HDAC3)?
A: Its koff is 0.000147 s⁻¹.

Q: What about the “type of binding to HDAC3 (words)” value ([8]; HDAC3) of the same compound?
A: The value was “slow, tight-binding inhibitor”.

Q: And the “type of binding to HDAC3 (words)” value ([8]; HDAC3, listed as compound 1)?
A: The value was “fast on/slow off binding”.

Q: And the T1/2 ([8]; HDAC3 residence)?
A: The T1/2 was 1.32 h.

Q: And the “binding selectivity (Ki) for HDAC3 versus HDAC1” value ([8]; thermodynamic (Ki))?
A: Its value is 175 fold.

Q: And the “binding selectivity (Ki) for HDAC3 versus HDAC2” value ([8]; thermodynamic (Ki))?
A: Its value is 217 fold.

Q: What about the KI (inactivation) ([9]; HDAC1, values marked *, read-out: Ki (binding constant derived from HDAC1 inactivation kinetics)) of the same compound?
A: The KI (inactivation) was 5100 nM.

Q: What about the Kd ([9]; from Kinactivation vs concentration, read-out: Kd of HDAC1-Compound 1 complex) of the same compound?
A: Its Kd is 5100 nM.

Q: And the IC50 ([10]; read-out: HDAC1 IC50 3 h Prein, Table 2, 3 h preincubation)?
A: The IC50 was 1250 nM.

Q: And the IC50 ([10]; read-out: HDAC1 IC50 3 h Preinc, Table 2A, 3 h preincubation)?
A: Its IC50 is 1250 nM.

Q: And the IC50 ([10]; read-out: HDAC1 IC50 @3 hr, 3 hr preincubation)?
A: Its IC50 is 1250 nM.

Q: And the “glucolipotoxicity-induced apoptosis in rat islets” value [11]?
A: The value was “decreases glucolipotoxicity-induced apoptosis in rat islets”.
